The source made the active and inactive calls. No rule for the calls is given here.
Assay: NF-kB promoter reporter activators, neuronal cells, dose response, cell-based, SH-SY5Y, luciferase (AID 1241)
Settings: fold induction

| Compound | EC50 |
| --- | --- |
| O=C(Nc1nc2ccccc2s1)c1ccc2c(c1)OCO2 | 138 nM |
| Cc1ccccc1Nc1nc(N)nc(CSc2ccc(F)cc2)n1 | 6450 nM |
| COc1cccc(/C=N/Nc2nccnc2Cl)c1O | 2170 nM |
| C=CCN=c1scc(-c2ccccc2)n1/N=C/c1ccccn1 | 1460 nM |
| COc1ccc(-c2cc(=O)c3c(O)c(OC)c(O)cc3o2)cc1 | 2290 nM |
| O=C(NCCSc1ccccc1)c1ccc(Br)cc1 | 1340 nM |
| COc1ccc2c(c1)CC/C2=N\OC(=O)c1ccccc1C | 1970 nM |
| COc1cccc2sc(N(C)c3ccccc3)nc12 | 2670 nM |
| NC(=O)c1ccc(-c2ncc(-c3ccccc3)o2)cc1 | 403 nM |
| COCCNc1nc(-c2cc3ccccc3o2)cs1 | 1400 nM |
| FC(F)(F)c1cc(Cl)c2nc(-c3ccccc3)cn2c1 | 5670 nM |
| CSc1ccc(/C=N/Nc2cccc(C(=O)O)c2)cc1 | 3430 nM |
| Cc1cccc(-n2ncc3c(NC4CCCCC4)ncnc32)c1 | 2330 nM |
| CCOC(=O)c1sc(NC(=O)Nc2ccc(F)cc2)nc1C | 2670 nM |
| Cc1ccsc1/C=N/Nc1cccc(C(=O)O)c1 | 1050 nM |
| CN(c1ccc(O)cc1)c1nc(-c2ccccc2)cs1 | 1020 nM |
| C/C(=N\NC(=O)c1ccc(Br)cc1)c1ccccc1 | 23400 nM |
| Cn1cccc1C(=O)C(=O)Nc1ccccc1 | 25100 nM |
| COc1ccc(-c2nnc(SCc3ccccc3F)o2)cc1 | 3890 nM |
| CC(=O)c1c(C)[nH]c(C(=O)Nc2ccc3c(c2)OCCO3)c1C | 5260 nM |
| COc1cccc(/C=C/C(=O)Nc2ccc3c(c2)OCCO3)c1 | 3940 nM |
| O=C(Cc1nc(=O)c2ccccc2s1)Nc1ccccc1 | 220 nM |
| Cc1ccc(Cc2cnc(NC(=O)c3cccs3)s2)cc1 | 4960 nM |

| Compound | EC50 |
| --- | --- |
| COc1cccc(NC(=O)Nc2ccc3c(c2)nc(C)n3C)c1 | 9300 nM |
| CCCCOc1ccc(-c2csc(N)n2)cc1[N+](=O)[O-] | 14100 nM |
| CCN(CC)c1ccc(C(=O)Nc2cccc(F)c2)cc1 | 1060 nM |
| COCCOCCn1c(/C=C/c2ccccc2)nc2ccccc21 | 5780 nM |
| CCCCc1ccc(-c2nc(-c3ccncc3)no2)cc1 | 4140 nM |
| CC(/C=N/NC(=O)c1cccs1)=C\c1ccccc1 | 2310 nM |
| CCOc1ccc(OCc2cccc(C(=O)O)c2)cc1 | 1850 nM |
| Cc1cccc(Nc2nc(-c3ccccn3)cs2)n1 | 1190 nM |
| Cc1cccc(NC(=O)/C=C/c2ccc3c(c2)OCO3)n1 | 2510 nM |
| COc1cc(SC)ccc1C(=O)NCCOc1ccccc1Cl | 15500 nM |
| CCCc1cc(C(=O)Nc2nccs2)cs1 | 2620 nM |
| O=C(Nc1ccc2sccc2c1)c1ccc(Cl)s1 | 511 nM |
| O=C(CSC(=S)N1CCSCC1)c1ccccc1 | 3440 nM |
| O=C(Nc1ccc2oc(-c3ccccc3F)nc2c1)c1ncn[nH]1 | 2110 nM |
| Cc1c(-c2nc(N)nc(Nc3ccccc3F)n2)oc2ccccc12 | 2020 nM |
| CN=c1scc(C)n1/N=C/c1ccc2c(c1)OCO2 | 129 nM |
| COc1ccc(-c2csc(NCc3ccco3)n2)cc1 | 3700 nM |
| COc1ccc(-c2csc(-c3ccccc3)n2)c(OC)c1 | 6740 nM |
| Cc1ccccc1OCC(=O)Nc1cccc(C(=O)O)c1 | 4050 nM |
| CCCCc1ccc(-c2ccc(C)cc2O)nc1 | 3250 nM |
| CC(/C=N/Nc1nc2ccccc2[nH]1)=C\c1ccccc1 | 4160 nM |
| c1ccc(-c2ncc(-c3ccn[nH]3)s2)cc1 | 2320 nM |
| Fc1ccccc1CSc1nc2ccccc2[nH]1 | 3190 nM |

| Compound | EC50 |
| --- | --- |
| CCCCCCOc1ccc(OC(=O)c2cccnc2)cc1 | 189 nM |
| Cc1occc1C(=O)Nc1cccc2ccccc12 | 4620 nM |
| Cc1ccnc(NS(=O)(=O)c2ccc(NC(=O)c3ccc([N+](=O)[O-])s3)cc2)n1 | 5770 nM |
| Nc1nc(-c2ccccc2)nc2sc3c(c12)CCCC3 | 873 nM |
| Cc1ccc(/C=N/Nc2ccc(Cl)c(C(=O)O)c2)s1 | 12800 nM |
| CC(=O)Nc1cccc(-c2csc(Nc3ccc(Cl)cn3)n2)c1 | 2200 nM |
| COc1cccc(-c2noc(-c3ccc4c(c3)OCO4)n2)c1 | 506 nM |
| N#CC1(c2ccc(NC(=O)c3ccccc3F)cc2)CCCC1 | 1080 nM |
| Clc1ccc(OCc2nc(-c3ccncc3)no2)c(Cl)c1 | 1120 nM |
| O=C(/C=C/Nc1ccc(Oc2ccccc2)cc1)c1ccco1 | 1210 nM |
| CCSc1ccc(-c2ccc(C)cc2)nn1 | 690 nM |
| CC(=O)Nc1ccc(-c2csc(Nc3cccc(C)n3)n2)cc1 | 1000 nM |
| COCCNC(=O)/C(C#N)=C/c1cc(C)n(-c2ccc(C)cc2)c1C | 5600 nM |
| CC(=O)c1cccc(N/C=C\C(=O)c2ccc(C)cc2)c1 | 904 nM |
| COc1cc(/C=N/N(C)c2ccccc2)ccc1O | 2640 nM |
| COc1ccc(N2C(=S)NC3N2C(=S)NC3(C)c2ccccc2)cc1 (stereo not drawn) | 8370 nM |
| O=C(Nc1ccccc1)c1cc2ccccc2o1 | 1240 nM |
| Cc1ccc(NC2=Nc3ccccc3CS2)cc1 | 1340 nM |
| Brc1ccccc1/C=N/Nc1ccc2ccccc2n1 | 5500 nM |
| CCOC(=O)C1=C(C)n2c(s/c(=C/c3cccc([N+](=O)[O-])c3)c2=O)=NC1c1ccc(O)c(OC)c1 (stereo not drawn) | 2100 nM |
| Cc1ccc2nc(-c3sc4nc(C)ccc4c3N)[nH]c2c1 | 765 nM |
| COc1ccc(C(=O)NCCSc2ccccc2)cc1 | 956 nM |
| Cc1ccc(Nc2nc(-c3ccc(O)c(O)c3)cs2)nc1 | 6730 nM |

| Compound | EC50 |
| --- | --- |
| COc1ccc(-c2coc3cc(OC)cc(O)c3c2=O)cc1 | 1720 nM |
| O=C(c1ccccc1)n1ccc(-c2cnc(-c3ccccc3)s2)n1 | 1490 nM |
| CC(C)c1ccc(/C=N/NC(=O)c2cccc(Cl)c2)cc1 | 28800 nM |
| CC1CCN(c2nc3ccc(C(=O)O)cc3s2)CC1 | 389 nM |
| Clc1ccc(-c2nnc(-c3ccccc3Cl)o2)cc1 | 2360 nM |
| O=C(Nc1ccc(N2CCOCC2)c(Cl)c1)c1cccc(F)c1 | 8600 nM |
| O=c1c(-c2ccc3c(c2)OCCO3)coc2cc(O)cc(O)c12 | 22700 nM |
| O=C1C(c2cc(=O)c3ccccc3[nH]2)=C(O)c2ccccc21 | 4980 nM |
| COc1ccc(-c2nc(-c3ccc(Br)o3)no2)cc1 | 2010 nM |
| Clc1ccccc1-c1nnc(-c2ccc3c(c2)OCO3)o1 | 1410 nM |
| O=C(Nc1ccc2nsnc2c1)c1ccc2c(c1)OCO2 | 1850 nM |
| CCc1ccc(NC(=O)c2cnn(-c3ccccc3)c2C)cc1 | 2560 nM |
| Cc1ccc2nc(-c3ccc(NC(=O)CNC4CC4)cc3)sc2c1 | 1690 nM |
| COc1ccc(C(=O)Nc2ccc3c(c2)OCCO3)cc1 | 1350 nM |
| COc1ccc(-c2nc3ccc([N+](=O)[O-])cc3[nH]2)cc1 | 1660 nM |
| CCOC(=O)c1sc(NC(=O)Nc2ccccc2)cc1C | 753 nM |
| CCOC(=O)c1cnc2c(-c3ccccc3)cnn2c1N | 5180 nM |
| Cc1c(C(=O)NC2=NCCS2)oc2ccccc12 | 1030 nM |
| O=C(Nc1nc2ccccc2s1)c1ccc(F)cc1 | 1200 nM |
| Cc1ccc(C(=O)Nc2ccc3c(c2)CCC3)o1 | 31000 nM (inactive) |
| Cc1ccsc1C(=O)N/N=C/c1ccc2c(c1)OCO2 | 1140 nM |
| O=C(C=C1SCCS1)/C=C/c1ccco1 | 781 nM |
| Clc1cc(Cl)c(OCc2nc(-c3ccccn3)no2)cc1Cl | 1850 nM |

| Compound | EC50 |
| --- | --- |
| CC(C)c1ccc(/C=C/C(=O)Nc2nncs2)cc1 | 4500 nM |
| COc1ccc(CSc2nc3ccccc3[nH]2)cc1 | 4290 nM |
| Cc1ccc2nc(-c3ccc(NC(=O)COC(=O)c4ccc(Br)o4)cc3)sc2c1 | 485 nM |
| COc1cccc(CNc2cnc3ccccc3c2)c1O | 13900 nM |
| C/C(N)=C(/C#N)C(=O)CSc1nnc(-c2ccc3c(c2)OCO3)o1 | < 59 nM |
| Cn1cccc1C(=O)OCc1csc(-c2ccccc2)n1 | 768 nM |
| c1ccc(COc2ccc(OCCCn3cncn3)cc2)cc1 | 19800 nM |
| Cc1ccc(C)c(NC(=O)c2ccc3ccccc3n2)c1 | 1880 nM |
| Cc1cc(C=C2C(=O)c3ccccc3C2=O)c(C)n1C | 2790 nM |
| O=C(Nc1nc(-c2nc3ccccc3s2)cs1)C1CC1 | 15600 nM |
| O=C(/C=C/Nc1ccccc1F)c1ccc(Br)cc1 | 595 nM |
| Cc1ccc2nc(-c3ccc(NC(=O)COC(=O)c4cncc(Br)c4)cc3)sc2c1 | 393 nM |
| c1ccc2c(c1)CCN(c1nc3cc4c(cc3s1)OCO4)C2 | 524 nM |
| O=C(c1cnn(-c2ccccc2)c1)c1ccccc1O | 1700 nM |
| O=C(c1ccccc1)c1cnc(Nc2ccccc2Cl)s1 | 7970 nM |
| CCOc1ccc(/C=N/Nc2ccccn2)cc1 | 1010 nM |
| c1ccc(Nc2nc(-c3ccncc3)cs2)nc1 | 1640 nM |
| O=C(NCc1cccnc1)c1ccc([N+](=O)[O-])o1 | 2810 nM |
| O=C(Nc1ccon1)c1cc2c(s1)CCCC2 | 4130 nM |
| O=C(/C=C/Nc1ccccc1)c1ccccc1 | < 59 nM |
| COc1ccc2nc(SCC(C)=O)c(C#N)cc2c1 | 1900 nM |
| COc1ccccc1Nc1nc(-c2cccs2)cs1 | 3680 nM |
| c1ccc2oc(-c3csc(NCC4CCCO4)n3)cc2c1 (stereo not drawn) | 2540 nM |

| Compound | EC50 |
| --- | --- |
| Cc1nn(-c2ccccc2)c(Cl)c1/C=N/Nc1ccc(Cl)c(C(=O)O)c1 | 11300 nM |
| CC(C)N=c1scc(-c2ccco2)n1/N=C/c1ccc(O)c(O)c1 | 6500 nM |
| COc1cccc(N/C=C/C(=O)c2ccc(Cl)cc2)c1 | 652 nM |
| COc1ccc(C(=O)/C=C2\Sc3ccccc3N2C)cc1 | 1750 nM |
| CC(C)Oc1ccc(C(=O)NC2=NCCS2)cc1 | 1870 nM |
| Nc1nc2ccc(-c3nc4ccccc4o3)cc2s1 | 1390 nM |
| O=C(/C=C/c1ccc(Cl)cc1Cl)Nc1cccc(S(=O)(=O)NC2=NCCC2)c1 | 1300 nM |
| O=C1C(C=Nc2ccc(F)cc2)=C(O)c2ccccc21 | 2410 nM |
| COc1ccc2c(c1OC)C(=O)OC2Nc1nc(-c2ccc(-c3ccccc3)cc2)cs1 (stereo not drawn) | 2980 nM |
| COc1ccc(Cn2c(C3CC3)nc3ccc(NC(=O)C4CC4)cc3c2=O)cc1 | 1300 nM |
| CN(C)C(=O)Oc1ccc(-c2cn3cc(Cl)ccc3n2)cc1 | 3220 nM |
| COc1ccc(/C=C/c2nc(-c3ccccc3O)n[nH]2)cc1 | 2920 nM |
| Cc1nc(-c2ccc(NC(=O)c3ccccc3)cc2)cs1 | 761 nM |
| COc1ccc(-c2cc(-c3cc(C)ccc3O)[nH]n2)cc1 | 16000 nM |
| CN=c1scc(-c2ccccc2F)n1/N=C(\C)c1cccnc1 | 24400 nM |
| O=C1CC(c2ccco2)CC2=C1C1c3ccccc3C(=O)N1c1ccccc1N2 (stereo not drawn) | 3070 nM |
| Oc1ccccc1/C=N/Nc1cccc2cccnc12 | 3580 nM |
| O=C(Nc1ccc2c(c1)OCCO2)c1ccc(Br)s1 | 609 nM |

From PubChem BioAssay AID1241 (SRMLSC, 2008)
